Test [1] has as its target T1, recombinant human α1D receptor (Homo sapiens, UniProt P25100).
T1 construct: expressed in transfected cells; host or cells: HEK293
T1 sequence (P25100 1-572): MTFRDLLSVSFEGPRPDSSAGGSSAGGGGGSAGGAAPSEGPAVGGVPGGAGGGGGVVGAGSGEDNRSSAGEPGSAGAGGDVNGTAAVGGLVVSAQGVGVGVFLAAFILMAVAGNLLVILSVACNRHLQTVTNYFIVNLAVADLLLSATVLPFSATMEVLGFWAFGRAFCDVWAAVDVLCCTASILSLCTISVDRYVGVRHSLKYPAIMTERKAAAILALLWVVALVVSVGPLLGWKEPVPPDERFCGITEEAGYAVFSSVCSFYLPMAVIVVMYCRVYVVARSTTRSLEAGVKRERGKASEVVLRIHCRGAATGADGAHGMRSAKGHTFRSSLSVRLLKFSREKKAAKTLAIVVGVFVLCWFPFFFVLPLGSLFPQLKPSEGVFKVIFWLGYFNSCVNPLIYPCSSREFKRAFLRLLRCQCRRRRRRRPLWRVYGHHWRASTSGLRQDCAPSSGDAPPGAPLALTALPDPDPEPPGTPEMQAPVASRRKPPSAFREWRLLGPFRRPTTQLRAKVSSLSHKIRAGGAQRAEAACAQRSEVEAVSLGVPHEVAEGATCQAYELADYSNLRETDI
Description: Adrenergic α1D [3H]-prazosin binding, HEK293 membranes. As to conditions: inhibition of [3H]-prazosin binding (0.3 nM), read-out: α1 bind pIC50 (converted). The method, then: Membranes were prepared from human embryonic kidney 293 (HEK293) cells expressing recombinant human α1D receptor. These were diluted in Assay Buffer (50 mM HEPES, 1 mM EDTA, pH 7.4) to provide a final concentration of membranes that gave a clear window between maximum and minimum specific binding.
Assays were performed in U-bottomed 96-well polypropylene plates. 10 μL [^3H]-prazosin (0.3 nM final concentration) and 10 μL of test compound (10× final concentration) were added to each test well. For each assay plate 8 replicates were obtained for [^3H]-prazosin binding in the presence of 10 μL vehicle (10% (v/v) DMSO in Assay Buffer; defining maximum binding) or 10 μL BMY7378 (10 μM final concentration; defining non-specific binding (NSB)). Membranes were then added to achieve a final volume of 100 μL. The plates were incubated for 2 hours at room temperature and then filtered onto PEI coated GF/B filter plates, pre-soaked for 1 hour in Assay Buffer, using a 96-well plate Tomtec cell harvester. Five washes with 250 μL wash buffer (50 mM HEPES, 1 mM EDTA, pH 7.4) were performed at 4° C. to remove unbound radioactivity. […] The plates were sealed (TopSeal A) and filter-bound radioactivity was measured with a scintillation counter (TopCount, Packard BioScience) using a 3-minute counting protocol.
(§1) Total specific binding (B0) was determined by subtracting the mean NSB from the mean maximum binding. […]

For test [2], the target named is T2, recombinant human Dopamine Subtype D2s receptors (Homo sapiens, UniProt P14416).
T2 construct: purchased Perkin Elmer
T2 sequence (P14416 1-414 isoform P14416-2): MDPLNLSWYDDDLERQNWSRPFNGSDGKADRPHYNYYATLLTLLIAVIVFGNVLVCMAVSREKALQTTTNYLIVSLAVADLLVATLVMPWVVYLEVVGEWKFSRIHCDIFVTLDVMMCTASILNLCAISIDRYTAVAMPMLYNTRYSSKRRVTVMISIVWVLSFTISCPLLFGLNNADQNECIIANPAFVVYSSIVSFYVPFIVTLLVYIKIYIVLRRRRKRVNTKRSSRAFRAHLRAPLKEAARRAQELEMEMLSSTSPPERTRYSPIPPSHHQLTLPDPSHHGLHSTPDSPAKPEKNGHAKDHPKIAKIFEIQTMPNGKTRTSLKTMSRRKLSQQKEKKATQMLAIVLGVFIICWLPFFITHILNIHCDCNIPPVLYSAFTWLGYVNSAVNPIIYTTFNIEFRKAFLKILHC
Description: Dopamine D2 [3H]-spiperone binding. As to conditions: inhibition of [3H]-spiperone binding (0.16 nM); read-out: D2 bind pIC50 (converted). The method, then:
Membranes containing recombinant human Dopamine Subtype D2s receptors were obtained from Perkin Elmer. These were diluted in Assay Buffer (50 mM HEPES, 1 mM EDTA, 120 mM NaCl, 0.1% gelatin, pH 7.4) to provide a final concentration of membranes that gave a clear window between maximum and minimum specific binding.
Assays were performed in U-bottomed 96-well polypropylene plates. 30 μL [^3H]-spiperone (0.16 nM final concentration) and 30 μL of test compound (10× final concentration) were added to each test well. For each assay plate 8 replicates were obtained for [^3H]-spiperone binding in the presence of 30 μL vehicle (10% (v/v) DMSO in Assay Buffer; defining maximum binding) or 30 μL Haloperidol (10 μM final concentration; defining non-specific binding (NSB)). Membranes were then added to achieve a final volume of 300 μL. […] Five washes with 250 μL wash buffer (50 mM HEPES, 1 mM EDTA, 120 mM NaCl, pH 7.4) were performed at 4° C. to remove unbound radioactivity. […] The plates were sealed (TopSeal A) and filter-bound radioactivity was measured with a scintillation counter (TopCount, Packard BioScience) using a 3-minute counting protocol.
as §1

With `CCCCC[C@@H](C)N(CCNCCc1ccc(O)c2c1OCC(=O)N2)C(=O)CCNCCc1ccccc1` [Example 60, (R)—N-(Heptan-2-yl)-N-(2-(2-(5-hydroxy-3-oxo-3,4-dihydro-2H-benzo[b][1,4]oxazin-8-yl)ethylamino)ethyl)-3-(phenethylamino)propanamide bis(trifluoroacetate)], the IC50 in test [1] is 100 nM; in test [2], 50.1 nM.

The values above are taken from patent publication US20120142646A1, “Novel Compounds 621” (priority 2006, published 2012).
